Earlier results, collected in patent US6211152A, “Formulations for peptide release” (Peptech Limited, priority 1995, dated 2001).

Tests used:
[1] = system: dogs/bitches; details: overdosing dogs/bitches
[2] = system: prostate cancer in rats; details: microencapsulated form, controlled dose over 30 days, vs daily subcutaneous equivalent or double doses of free peptide

Row | Compound | period of shut down of reproductive function [1] | suppressing serum testosterone levels and prostate tumour weight [2]
1 | CC(C)C[C@H](NC(=O)[C@@H](Cc1ccc2ccccc2c1)NC(=O)[C@H](Cc1ccc(O)cc1)NC(=O)[C@H](CO)NC(=O)[C@H](Cc1c[nH]c2ccccc12)NC(=O)[C@H](Cc1c[nH]cn1)NC(=O)[C@@H]1CCC(=O)N1)C(=O)N[C@@H](CCCNC(=N)N)C(=O)N1CCC[C@H]1C(=O)NCC(N)=O [nafarelin] | three to eighteen | –
2 | [D Trp^6 ] LH-RH | – | more effective
